pEC50: −log10 of the molar value. Read-outs that look alike come from different tables or passages of the source.
How the values were obtained:
Cdc7/Dbf4 = Cdc7/Dbf4 (Homo sapiens (Human), UniProt O00311); experiment: Cdc7 Inhibition Assay; format: biochemical;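 further: reaction mixtures incubated 30 min on streptavidin-coated plates, then quantified by scintillation counting, with inhibition curves fitted by non-linear regression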
Method: The reactions were incubated for 30 minutes on streptavidin-coated plates, washed, and quantified using a TopCount scintillation plate reader (Packard). IC50 values are determined via non-linear regression fitting of the data.

[1] = test system: phospho-MCM2 Ser53 in HCT-116 cells; experiment: Phospho-MCM2 ELISA; format: cell-based; details: Homo sapiens, treated 6 hours
Method: HCT-116 cells (20,000/well; 96-well format) were treated for 6 hours with increasing concentrations of compounds (0.01-10 μM in half-log increments). After removing the medium/inhibitor, the cells were frozen for 5 minutes and treated on ice with 20 μL of lysis buffer (Invitrogen #FNN0011) for 30 minutes. 80 μL of cold 2% BSA (in PBS) were then added to each well before transferring 80 μL to MCM2 antibody-coated plates (Bethyl #A300-122A, lot A300-122A-1). The plates were incubated overnight at 4° C., washed, and then incubated with the sandwich antibody (1:100 rabbit anti-human phospho-MCM2 Ser53; Bethyl #A300-756A, lot A300-756A-2) for 2 hours at room temperature. After another series of washes the samples are incubated for 1 hour with detection antibody (XSA-grade goat anti-rabbit-HRP, KPL #074-15-061, lot 50884, diluted to 2 μg/mL in 2% BSA). Plates were washed, developed using luminescence substrate (SuperSignal Pico for ELISA, Pierce #37069, Lot. HB101408), and read on a Molecular Devices M5 luminometer.

HCT-116 cells = experiment: AlamarBlue Cell Viability Assays; format: cell-based; details: Homo sapiens, treated 72 hours
Method: AlamarBlue Cell Viability Assays
HCT-116 cells (3,000/well; 96-well format) were treated for 72 hours with increasing concentrations of compounds (0.01-30 μM in half-log increments). The cells were then incubated in fresh media with 10% AlamarBlue reagent (Invitrogen #DAL1100). AlamarBlue reactions were incubated according to the manufacturer's instructions (approximately 4 hours) and then analyzed using an fmax fluorescence microplate reader (Molecular Devices) using excitation/emission wavelengths of 544/595 nm. Data were analyzed using SOFTmax PRO software provided by the manufacturer.

[2] = 11 data point, read-out: Ki (μM) 11 data point
[3] = 6 data point, read-out: Ki (μM) 6 data point

Sequence of Cdc7/Dbf4 (O00311 whole entry): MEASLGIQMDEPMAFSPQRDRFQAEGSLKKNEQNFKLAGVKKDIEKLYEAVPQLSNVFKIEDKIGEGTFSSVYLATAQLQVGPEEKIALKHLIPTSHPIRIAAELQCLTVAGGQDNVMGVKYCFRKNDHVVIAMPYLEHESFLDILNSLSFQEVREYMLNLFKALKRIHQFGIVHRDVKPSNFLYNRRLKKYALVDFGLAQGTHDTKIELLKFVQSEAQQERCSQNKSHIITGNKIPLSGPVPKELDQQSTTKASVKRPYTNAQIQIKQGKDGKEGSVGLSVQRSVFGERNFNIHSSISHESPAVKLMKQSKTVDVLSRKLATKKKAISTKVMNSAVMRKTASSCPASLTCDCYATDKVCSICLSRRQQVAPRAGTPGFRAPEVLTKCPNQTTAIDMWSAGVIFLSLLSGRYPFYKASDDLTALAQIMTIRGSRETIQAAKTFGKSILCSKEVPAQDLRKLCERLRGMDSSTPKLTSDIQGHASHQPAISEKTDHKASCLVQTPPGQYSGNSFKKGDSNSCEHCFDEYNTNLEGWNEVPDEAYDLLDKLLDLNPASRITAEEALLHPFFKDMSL
Sequence of Cdc7/Dbf4 (Q9UBU7 whole entry partner): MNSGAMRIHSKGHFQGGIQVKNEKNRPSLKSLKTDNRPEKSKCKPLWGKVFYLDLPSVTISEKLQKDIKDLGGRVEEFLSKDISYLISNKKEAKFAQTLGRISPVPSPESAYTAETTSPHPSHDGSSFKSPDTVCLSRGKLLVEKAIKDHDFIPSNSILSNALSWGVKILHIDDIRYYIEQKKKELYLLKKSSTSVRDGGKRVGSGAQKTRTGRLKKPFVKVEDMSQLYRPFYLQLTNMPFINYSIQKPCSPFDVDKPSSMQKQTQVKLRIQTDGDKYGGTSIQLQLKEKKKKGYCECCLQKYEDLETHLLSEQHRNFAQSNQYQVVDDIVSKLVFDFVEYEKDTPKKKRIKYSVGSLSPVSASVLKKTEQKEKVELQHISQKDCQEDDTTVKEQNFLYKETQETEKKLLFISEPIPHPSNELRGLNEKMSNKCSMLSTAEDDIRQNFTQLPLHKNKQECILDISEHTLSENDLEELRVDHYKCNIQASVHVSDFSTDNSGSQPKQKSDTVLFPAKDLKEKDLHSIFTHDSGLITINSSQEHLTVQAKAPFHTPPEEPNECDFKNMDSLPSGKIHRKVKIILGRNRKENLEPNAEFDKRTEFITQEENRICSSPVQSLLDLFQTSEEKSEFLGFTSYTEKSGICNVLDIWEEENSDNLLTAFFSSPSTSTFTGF

Structure (SMILES) | Ki (Cdc7/Dbf4; [2]) | pEC50 [1] | pEC50 (HCT-116 cells) | Ki (Cdc7/Dbf4; [3])
CN(C)c1ccc(-c2c(-c3ccc4[nH]nc(N)c4c3)nnn2Cc2ccccc2)cc1 [Example 185, 5-{1-benzyl-5-[4-(dimethylamino)phenyl]-1H-1,2,3-triazol-4-yl}-1H-indazol-3-amine] | 0.0004 µM | 5.26 | 4.65 | 
c1ccc(Cn2cc(-c3ccc4[nH]nc(-c5ccccc5)c4c3)nn2)cc1 [Example 61, 5-(1-benzyl-1H-1,2,3-triazol-4-yl)-3-phenyl-1H-indazole] | 0.0077 µM | 5.06 | 5.40 | 
O=C(Nc1n[nH]c2ccc(-c3nnn(Cc4ccccc4)c3C3CC3)cc12)c1cccc(Cl)c1 [Example 224, N-[5-(1-benzyl-5-cyclopropyl-1H-1,2,3-triazol-4-yl)-1H-indazol-3-yl]-3-chlorobenzamide] |  | < 5.00 | 5.62 | 
Clc1ccc(CNc2n[nH]c3ccc(-c4nnn(Cc5ccccc5)c4C4CC4)cc23)cc1 [Example 227, 5-(1-benzyl-5-cyclopropyl-1H-1,2,3-triazol-4-yl)-N-(4-chlorobenzyl)-1H-indazol-3-amine] | 0.015 µM | < 5.00 | 5.85 | 
Fc1ccc(-c2c(-c3ccc4[nH]ncc4c3)nnn2CC2CCOCC2)cc1 [Example 167, 5-[5-(4-fluorophenyl)-1-(tetrahydro-2H-pyran-4-ylmethyl)-1H-1,2,3-triazol-4-yl]-1H-indazole] | 0.00105 µM | 5.37 | 4.74 | 
COc1ccc(NC(=O)Nc2n[nH]c3ccc(-c4nnn(Cc5ccccc5)c4-c4ccccc4)cc23)cc1 [Example 200, N-[5-(1-benzyl-5-phenyl-1H-1,2,3-triazol-4-yl)-1H-indazol-3-yl]-N′-(4-methoxyphenyl)urea] | 0.013 µM |  | 4.87 | 
O=C(Nc1n[nH]c2ccc(-c3cn(Cc4ccccc4)nn3)cc12)c1ccccc1 [Example 73, N-[5-(1-benzyl-1H-1,2,3-triazol-4-yl)-1H-indazol-3-yl]benzamide] |  | 5.71 | 6.12 | 
O=C(Nc1nn(C(=O)c2ccccc2)c2ccc(-c3nnn(Cc4ccccc4)c3C3CC3)cc12)c1ccccc1 [Example 204, N-[1-benzoyl-5-(1-benzyl-5-cyclopropyl-1H-1,2,3-triazol-4-yl)-1H-indazol-3-yl]benzamide] | 0.11 µM | 5.21 | 6.89 | 
c1ccc(Cn2nnc(-c3ccc4[nH]ncc4c3)c2-c2ccccc2)cc1 [Example 87, 5-(1-benzyl-5-phenyl-1H-1,2,3-triazol-4-yl)-1H-indazole] | 0.000601 µM | 5.23 | 4.96 | 
Nc1n[nH]c2ccc(-c3nnn(Cc4ccccc4)c3C3CC3)cc12 [Example 89, 5-(1-benzyl-5-cyclopropyl-1H-1,2,3-triazol-4-yl)-1H-indazol-3-amine] | 0.035 µM | < 5.00 | 5.26 | 
O=C(Nc1n[nH]c2ccc(-c3nnn(Cc4ccccc4)c3C3CC3)cc12)c1cccc(F)c1 [Example 205, N-[5-(1-benzyl-5-cyclopropyl-1H-1,2,3-triazol-4-yl)-1H-indazol-3-yl]-3-fluorobenzamide] | 0.0024 µM | < 5.00 | 6.23 | 0.0009 µM
Clc1ccc(Cn2cc(-c3ccc4[nH]ncc4c3)nn2)c(Cl)c1 [Example 32, 5-[1-(2,4-dichlorobenzyl)-1H-1,2,3-triazol-4-yl]-1H-indazole] | 0.0127 µM |  | < 4.52 | 
CCNC(=O)Nc1n[nH]c2ccc(-c3cn(Cc4ccccc4)nn3)cc12 [Example 322, N-[5-(1-benzyl-1H-1,2,3-triazol-4-yl)-1H-indazol-3-yl]-N′-ethylurea] | 0.034 µM | < 5.00 | 5.82 | 
Nc1n[nH]c2ccc(-c3nnn(Cc4ccccc4)c3-c3ccc(F)cc3)cc12 [Example 151, 5-[1-benzyl-5-(4-fluorophenyl)-1H-1,2,3-triazol-4-yl]-1H-indazol-3-amine] |  | 5.43 | 5.06 | 
Nc1n[nH]c2ccc(-c3cn(Cc4ccccc4)nn3)cc12 [Example 62, 5-(1-benzyl-1H-1,2,3-triazol-4-yl)-1H-indazol-3-amine] |  | < 5.00 | 5.34 | 
CCS(=O)(=O)Nc1n[nH]c2ccc(-c3nnn(Cc4ccccc4)c3C3CC3)cc12 [Example 216, N-[5-(1-benzyl-5-cyclopropyl-1H-1,2,3-triazol-4-yl)-1H-indazol-3-yl]ethanesulfonamide] | 0.12 µM |  | 4.72 | 
O=C(c1c(-c2ccc3[nH]ncc3c2)nnn1Cc1ccccc1)N1CCCCC1 [Example 169, 5-[1-benzyl-5-(piperidin-1-ylcarbonyl)-1H-1,2,3-triazol-4-yl]-1H-indazole] |  |  |  | > 1.23 µM
c1ccc(CNc2n[nH]c3ccc(-c4nnn(Cc5ccccc5)c4C4CC4)cc23)cc1 [Example 207, N-benzyl-5-(1-benzyl-5-cyclopropyl-1H-1,2,3-triazol-4-yl)-1H-indazol-3-amine] |  |  |  | 0.046 µM
O=C1CN(CC(=O)Nc2n[nH]c3ccc(-c4cn(Cc5ccccc5)nn4)cc23)CCN1 [Example 314, N-[5-(1-benzyl-1H-1,2,3-triazol-4-yl)-1H-indazol-3-yl]-2-(3-oxopiperazin-1-yl)acetamide] | 0.18 µM |  |  | 
Fc1cccc(CNc2n[nH]c3ccc(-c4cn(Cc5ccccc5)nn4)cc23)c1 [Example 414, 5-(1-benzyl-1H-1,2,3-triazol-4-yl)-N-(3-fluorobenzyl)-1H-indazol-3-amine] | 0.038 µM |  |  | 

More lines, now with the values ahead:

Ki (Cdc7/Dbf4; [2]) | pEC50 [1] | pEC50 (HCT-116 cells) | Ki (Cdc7/Dbf4; [3]) | Structure (SMILES)
0.0011 µM | 5.51 | 5.18 |  | Nc1n[nH]c2ccc(-c3nnn(Cc4ccccc4)c3Cc3ccccc3)cc12 [Example 405, 5-(1,5-dibenzyl-1H-1,2,3-triazol-4-yl)-1H-indazol-3-amine]
 | 5.50 | 5.50 |  | Nc1n[nH]c2ccc(-c3nnn(Cc4ccccc4)c3-c3ccccc3)cc12 [Example 102, 5-(1-benzyl-5-phenyl-1H-1,2,3-triazol-4-yl)-1H-indazol-3-amine]
0.0556 µM | < 5.00 | 6.84 |  | c1ccc(Cn2cc(-c3ccc4[nH]nc(-c5cn(Cc6ccccc6)nn5)c4c3)nn2)cc1 [Example 60, 3,5-bis(1-benzyl-1H-1,2,3-triazol-4-yl)-1H-indazole]
0.037 µM |  | 7.43 |  | Nc1n[nH]c2ccc(-c3nnn(Cc4ccccc4)c3C3CCCCC3)cc12 [Example 402, 5-(1-benzyl-5-cyclohexyl-1H-1,2,3-triazol-4-yl)-1H-indazol-3-amine]
0.068 µM | < 5.00 | 5.81 |  | CCCN(C(N)=O)c1n[nH]c2ccc(-c3cn(Cc4ccccc4)nn3)cc12 [Example 319, N-[5-(1-benzyl-1H-1,2,3-triazol-4-yl)-1H-indazol-3-yl]-N-propylurea]
0.02 µM | < 5.00 | 4.87 |  | Nc1n[nH]c2ccc(-c3nnn(Cc4ccccc4)c3CC3CCCC3)cc12 [Example 409, 5-[1-benzyl-5-(cyclopentylmethyl)-1H-1,2,3-triazol-4-yl]-1H-indazol-3-amine]
 | 5.03 | 6.03 |  | Cc1ccccc1-c1c(-c2ccc3[nH]nc(N)c3c2)nnn1Cc1ccccc1 [Example 163, 5-[1-benzyl-5-(2-methylphenyl)-1H-1,2,3-triazol-4-yl]-1H-indazol-3-amine]
 | 5.52 | 6.50 |  | O=C(Nc1n[nH]c2ccc(-c3cn(Cc4ccccc4)nn3)cc12)c1cccc(F)c1 [Example 395, N-[5-(1-benzyl-1H-1,2,3-triazol-4-yl)-1H-indazol-3-yl]-3-fluorobenzamide]
 | < 5.00 | 5.41 |  | Cc1c(-c2ccc3[nH]nc(N)c3c2)nnn1Cc1ccccc1 [Example 123, 5-(1-benzyl-5-methyl-1H-1,2,3-triazol-4-yl)-1H-indazol-3-amine]
0.0811 µM |  | 4.61 |  | COC(=O)c1n[nH]c2ccc(-c3cn(Cc4ccccc4)nn3)cc12 [Example 397, methyl 5-(1-benzyl-1H-1,2,3-triazol-4-yl)-1H-indazole-3-carboxylate]
 | 5.71 | < 4.52 |  | Cc1n[nH]c2ccc(-c3nnn(Cc4ccccc4)c3-c3ccc(F)cc3)cc12 [Example 408, 5-[1-benzyl-5-(4-fluorophenyl)-1H-1,2,3-triazol-4-yl]-3-methyl-1H-indazole]
0.23 µM |  |  |  | CN1CCN(c2n[nH]c3ccc(-c4cn(Cc5ccccc5)nn4)cc23)CC1 [Example 400, 5-(1-benzyl-1H-1,2,3-triazol-4-yl)-3-(4-methylpiperazin-1-yl)-1H-indazole]
0.63 µM |  |  |  | c1ccc(Cn2cc(-c3ccc4[nH]nc(N5CCOCC5)c4c3)nn2)cc1 [Example 399, 5-(1-benzyl-1H-1,2,3-triazol-4-yl)-3-morpholin-4-yl-1H-indazole]
0.052 µM |  |  |  | COc1ccc(CNc2n[nH]c3ccc(-c4cn(Cc5ccccc5)nn4)cc23)cc1 [Example 413, 5-(1-benzyl-1H-1,2,3-triazol-4-yl)-N-(4-methoxybenzyl)-1H-indazol-3-amine]

— patent publication US9163007B2, “5-substituted indazoles as kinase inhibitors” (AbbVie Inc., priority 2007, dated 2015)
